{
  "source": "paper PMC6934184",
  "about": "“Selective DNA-PKcs inhibition extends the therapeutic index of localized radiotherapy and chemotherapy” (The Journal of Clinical Investigation, 2019)",
  "target": "T1, TEK (TIE2) Y1108F (Homo sapiens, UniProt Q02763, Y1108F)",
  "T1 construct": "purchased Thermo Fisher Scientific (Life Technologies) SelectScreen",
  "T1 sequence (Q02763 23-1124 Y1108F)": "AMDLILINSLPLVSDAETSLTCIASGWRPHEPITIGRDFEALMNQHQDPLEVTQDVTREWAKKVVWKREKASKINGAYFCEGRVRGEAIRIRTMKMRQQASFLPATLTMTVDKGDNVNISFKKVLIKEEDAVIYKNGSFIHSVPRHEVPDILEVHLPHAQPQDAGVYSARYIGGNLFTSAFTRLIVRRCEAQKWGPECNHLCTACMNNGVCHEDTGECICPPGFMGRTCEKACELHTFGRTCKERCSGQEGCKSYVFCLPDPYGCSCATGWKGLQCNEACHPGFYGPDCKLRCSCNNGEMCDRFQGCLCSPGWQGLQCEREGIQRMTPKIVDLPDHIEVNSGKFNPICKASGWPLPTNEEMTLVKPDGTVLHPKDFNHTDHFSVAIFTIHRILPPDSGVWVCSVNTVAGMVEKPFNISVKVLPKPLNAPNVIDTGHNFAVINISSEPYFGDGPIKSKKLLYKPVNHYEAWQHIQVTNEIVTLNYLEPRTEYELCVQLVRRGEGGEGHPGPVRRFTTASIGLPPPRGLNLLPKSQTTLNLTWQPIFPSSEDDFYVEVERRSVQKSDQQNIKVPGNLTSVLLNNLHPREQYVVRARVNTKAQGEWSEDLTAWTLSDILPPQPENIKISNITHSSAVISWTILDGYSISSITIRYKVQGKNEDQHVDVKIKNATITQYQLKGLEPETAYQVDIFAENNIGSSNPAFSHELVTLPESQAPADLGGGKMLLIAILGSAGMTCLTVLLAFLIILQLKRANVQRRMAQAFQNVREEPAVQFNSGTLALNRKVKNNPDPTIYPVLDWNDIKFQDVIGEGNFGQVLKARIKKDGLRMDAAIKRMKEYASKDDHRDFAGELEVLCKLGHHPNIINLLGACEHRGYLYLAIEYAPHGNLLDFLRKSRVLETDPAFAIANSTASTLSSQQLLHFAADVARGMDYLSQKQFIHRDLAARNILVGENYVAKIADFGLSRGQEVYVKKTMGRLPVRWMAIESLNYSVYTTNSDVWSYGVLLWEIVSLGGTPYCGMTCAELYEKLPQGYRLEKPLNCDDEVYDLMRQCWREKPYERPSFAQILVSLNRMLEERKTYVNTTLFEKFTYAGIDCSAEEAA",
  "assay": "SelectScreen LanthaScreen",
  "type": "binding",
  "conditions": "read-out: % displacement",
  "how_it_was_run": "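SelectScreen broad panel; activity (Z'LYTE, Adapta) plus binding formats. ATP: Km app for CSF1R Z'LYTE; 10 for CAMK1 Adapta. Readout = % per kinase.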",
  "data": [
    {"smiles": "CN(C(=O)CN1CCOCC1)c1ccc2sc3c(-c4cccc5c(=O)cc(N6CC7CCC(C6)O7)oc45)cccc3c2c1", "note": "[NU5455]", "values": [
      {"measurement": "inhibition at 1 µM", "result": -0.3, "unit": "%"}
    ]}
  ]
}
